Test results taken from article PMC9848300, “Discovery of novel enasidenib analogues targeting inhibition of mutant isocitrate dehydrogenase 2 as antileukaemic agents” (Journal of Enzyme Inhibition and Medicinal Chemistry, 2023).

Legend:
HCT-15 = assay: NCI 60 antitumor screening (single dose / five doses); type: cell-based; conditions: Homo sapiens; HCT-15 (colon cancer), single dose 10 μM; read-out: Growth inhibition percentage (GI %)
786-0 = assay: as above; type: cell-based; conditions: Homo sapiens, 786-0, 786-0 (renal cancer), single dose 10 μM; read-out: Growth inhibition percentage (GI %)
HOP-92 = assay: as above; type: cell-based; conditions: Homo sapiens; HOP-92 (non-small cell lung cancer), single dose 10 μM; read-out: Growth inhibition percentage (GI %)
K-562 = assay: as above; type: cell-based; conditions: Homo sapiens, K562; K-562 (leukaemia), single dose 10 μM; read-out: Growth inhibition percentage (GI %)
RXF 393 = assay: as above; type: cell-based; conditions: Homo sapiens; RXF 393 (renal cancer), single dose 10 μM; read-out: Growth inhibition percentage (GI %)
ACHN = assay: as above; type: cell-based; conditions: Homo sapiens; ACHN (renal cancer), single dose 10 μM; read-out: Growth inhibition percentage (GI %)
T-47D = assay: as above; type: cell-based; conditions: Homo sapiens, T47D; T-47D (breast cancer), single dose 10 μM; read-out: Growth inhibition percentage (GI %)
HL-60(TB) = assay: as above; type: cell-based; conditions: Homo sapiens; HL-60(TB) (leukaemia), single dose 10 μM; read-out: Growth inhibition percentage (GI %)
UO-31 = assay: as above; type: cell-based; conditions: Homo sapiens; UO-31 (renal cancer), single dose 10 μM; read-out: Growth inhibition percentage (GI %)
UACC-257 = assay: as above; type: cell-based; conditions: Homo sapiens; UACC-257 (melanoma), single dose 10 μM; read-out: Growth inhibition percentage (GI %)
[1] = test system: 60 human subpanel cancer cell lines; assay: NCI 60 antitumor screening, mean over the panel (single dose); type: cell-based; conditions: mean over 60 cancer cell lines, single dose 10 μM
Description: Initially, the anticancer effects of target compounds have been assessed at a single (10 μM) dose. The obtained data have been reported as mean-graph of the percent growth (G%) of the treated cancer cells. Percentage growth inhibition (GI%) is calculated (100 − G%) and pronounced in Table 1. […] Target compounds in series (III) with manipulated linkers disclosed lower potency. Superiorly, eight s-triazine derivatives from the three series (6a, 6c, 6d, 7a, 7g, 7i, 7l, and 8b) have shown potent broad-spectrum anticancer activity against most the examined cell lines, whereas most of the remaining triazine derivatives, 20 derivatives, have exerted selective anti-proliferative actions towards certain cancer cell lines (Supplementary).
The antitumor screening was performed for 60 human cancer cell lines under the protocol of NCI (www.dtp.nci.nih.gov), the Drug Evaluation Branch, Bethesda, MD. All submitted compounds were nominated based on the degree of structural diversity and computer modelling techniques for evaluation of their anticancer activity. The screening process for antineoplastic activity passes through two successive levels, starting with the assessment of target compounds at a single dose of 10 μM against 60 cancer cell lines on nine types of human tumours. These experiments were done on a triplicate following. The output from the single‐dose screening was covered as a mean graph, and then, analysed by the COMPARE program. Finally, the compounds which disclosed subpanel cancer cell growth (G %) equal to or less than 10% in at least eight cancer cell lines get to pass the assessment against the 60 cell lines at five doses (0.01–100 μM). By using GraphPad Prism version 9.0 (Graphpad Software Inc., La Jolla, CA), GI50, TGI, as well as LC50 dose‐response parameters were computed and presented for each compound (Supplementary information)[55–57].

HCT-116 = assay: NCI 60 antitumor screening (single dose / five doses); type: cell-based; conditions: Homo sapiens; HCT-116 (colon cancer), single dose 10 μM; read-out: Growth inhibition percentage (GI %)
MDA-MB-231/ATCC = assay: as above; type: cell-based; conditions: Homo sapiens; MDA-MB-231/ATCC (breast cancer), single dose 10 μM; read-out: Growth inhibition percentage (GI %)
SK-MEL-28 = assay: as above; type: cell-based; conditions: Homo sapiens; SK-MEL-28 (melanoma), single dose 10 μM; read-out: Growth inhibition percentage (GI %)
SF-539 = assay: as above; type: cell-based; conditions: Homo sapiens; SF-539 (CNS cancer), single dose 10 μM; read-out: Growth inhibition percentage (GI %)
DU-145 = assay: as above; type: cell-based; conditions: Homo sapiens; DU-145 (prostate cancer), single dose 10 μM; read-out: Growth inhibition percentage (GI %)
SF-268 = assay: NCI 60 antitumor screening (single dose); type: cell-based; conditions: Homo sapiens; SF-268 (CNS cancer), single dose 10 μM; read-out: Growth inhibition percentage (GI %)
In short: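 NCI-60 protocol: single 10 μM dose against each cell line, run in triplicate. Percent growth (G%) of treated cells measured and growth inhibition reported as GI% = 100 − G%; panel mean also given.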

MCF7 = assay: NCI 60 antitumor screening (single dose); type: cell-based; conditions: Homo sapiens; MCF7 (breast cancer), single dose 10 μM; read-out: Growth inhibition percentage (GI %)
In short: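 NCI-60 one-dose screen. Dose: 10 μM. Lines: 60 human tumour lines, nine tissue types. Output: GI% = 100 − G%.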

IGROV1 = assay: NCI 60 antitumor screening (single dose / five doses); type: cell-based; conditions: Homo sapiens, IGROV-1; IGROV1 (ovarian cancer), single dose 10 μM; read-out: Growth inhibition percentage (GI %)
UACC-62 = assay: as above; type: cell-based; conditions: Homo sapiens; UACC-62 (melanoma), single dose 10 μM; read-out: Growth inhibition percentage (GI %)
MDA-MB-435 = assay: as above; type: cell-based; conditions: Homo sapiens; MDA-MB-435 (melanoma), single dose 10 μM; read-out: Growth inhibition percentage (GI %)
HT29 = assay: as above; type: cell-based, human; conditions: Homo sapiens, HT-29; HT29 (colon cancer), single dose 10 μM; read-out: Growth inhibition percentage (GI %)
COLO 205 = assay: as above; type: cell-based; conditions: Homo sapiens; COLO 205 (colon cancer), single dose 10 μM; read-out: Growth inhibition percentage (GI %)
BT-549 = assay: as above; type: cell-based; conditions: Homo sapiens; BT-549 (breast cancer), single dose 10 μM; read-out: Growth inhibition percentage (GI %)
SK-MEL-2 = assay: as above; type: cell-based; conditions: Homo sapiens; SK-MEL-2 (melanoma), single dose 10 μM; read-out: Growth inhibition percentage (GI %)
LOX IMVI = assay: as above; type: cell-based; conditions: Homo sapiens; LOX IMVI (melanoma), single dose 10 μM; read-out: Growth inhibition percentage (GI %)
SNB-75 = assay: as above; type: cell-based; conditions: Homo sapiens; SNB-75 (CNS cancer), single dose 10 μM; read-out: Growth inhibition percentage (GI %)
SN 12C = assay: as above; type: cell-based; conditions: Homo sapiens, SN12C; SN 12C (renal cancer), single dose 10 μM; read-out: Growth inhibition percentage (GI %)
A498 = assay: as above; type: cell-based; conditions: Homo sapiens; A498 (renal cancer), single dose 10 μM; read-out: Growth inhibition percentage (GI %)

Row | SMILES | inhibition at 10 µM (HCT-15) [%] | inhibition at 10 µM (786-0) [%] | inhibition at 10 µM (HOP-92) [%] | inhibition at 10 µM (K-562) [%] | inhibition at 10 µM (RXF 393) [%] | inhibition at 10 µM (ACHN) [%] | inhibition at 10 µM (T-47D) [%] | inhibition at 10 µM (HL-60(TB)) [%] | inhibition at 10 µM (UO-31) [%] | inhibition at 10 µM (UACC-257) [%] | inhibition at 10 µM (HCT-116) [%] | inhibition at 10 µM (MDA-MB-231/ATCC) [%] | inhibition at 10 µM (SK-MEL-28) [%] | inhibition at 10 µM (SF-539) [%] | inhibition at 10 µM (DU-145) [%] | inhibition at 10 µM (SF-268) [%] | inhibition at 10 µM (MCF7) [%] | inhibition at 10 µM (IGROV1) [%] | inhibition at 10 µM (UACC-62) [%] | inhibition at 10 µM (MDA-MB-435) [%] | other results
1 | CN(C)c1ccc(/C=N/Nc2nc(N/N=C/c3ccc(N(C)C)cc3)nc(N3CCOCC3)n2)cc1 [compound 6g, 4-[(1e)-(2-{4-[(E)-2-{[4-(dimethylamino)phenyl]methylidene}hydrazin-1-yl]-6-(morpholin-4-yl)-1,3,5-triazin-2-yl}hydrazin-1-ylidene)methyl]-N,N-dimethylaniline] | 77.6 | 15.4 | -8.78 | 93.7 | 6.9 | -4.23 | 5.31 | 3.26 | 9.35 | -2.69 | 64.3 | 0.47 | -5.75 | 3.33 | 7.27 | 2.19 | 45.1 | 5.41 | 2.25 | -4.43 | Mean GI % [1]: 14.28%; inhibition at 10 µM (HT29): -1.91%; inhibition at 10 µM (COLO 205): -8.37%; inhibition at 10 µM (BT-549): -5.53%; inhibition at 10 µM (SK-MEL-2): 1.45%; inhibition at 10 µM (LOX IMVI): 12.3%; inhibition at 10 µM (SNB-75): 12.6%; inhibition at 10 µM (SN 12C): 10.8%
2 | COC(=O)C(Cc1ccccc1)Nc1nc(NC(Cc2ccccc2)C(=O)OC)nc(N2CCOCC2)n1 (stereo not drawn) [compound 8c, Methyl 2-({4-[(1-methoxy-1-oxo-3-phenylpropan-2-yl)amino]-6-(morpholin-4-yl)-1,3,5-triazin-2-yl}amino)-3-phenylpropanoate] | -6.16 | -0.43 | -18.5 | 8.42 | -12.7 | -8.95 | -0.53 | -2.51 | 18.8 | -3.35 | 0.81 | -2.54 | -8.72 | 1.99 | -11.6 | -2.56 | 2.21 | 1.38 | 9.82 | -4.67 | inhibition at 10 µM (A498): -7.4%; inhibition at 10 µM (HT29): -0.61%; inhibition at 10 µM (COLO 205): -4.56%; inhibition at 10 µM (BT-549): -11.7%; inhibition at 10 µM (SK-MEL-2): -11%; inhibition at 10 µM (LOX IMVI): -5.03%; inhibition at 10 µM (SNB-75): 9.51%; inhibition at 10 µM (SN 12C): -3.62%
3 | O=C(NNc1nc(NNC(=O)c2ccccc2)nc(N2CCOCC2)n1)c1ccccc1 [compound 8d, N'-[4-(morpholin-4-yl)-6-(phenylhydrazido)-1,3,5-triazin-2-yl]benzohydrazide] | -2.67 | -3.15 | -12.8 | -6.16 | 0.99 | -4.4 | -10.8 | -15.3 | 13.3 | 1.13 | -3.34 | -3.73 | -19.5 | 2.56 | -7.98 | -1.5 | 0.71 | -2.38 | 4.98 | -2.63 | inhibition at 10 µM (A498): -11%; inhibition at 10 µM (HT29): -12%; inhibition at 10 µM (COLO 205): -12.9%; inhibition at 10 µM (BT-549): -9.45%; inhibition at 10 µM (SK-MEL-2): -13.4%; inhibition at 10 µM (LOX IMVI): 2.21%; inhibition at 10 µM (SNB-75): 9.11%; inhibition at 10 µM (SN 12C): -6.53%
